Data from patent publication US20250304700A1, “ANTI-BLOOD DENDRITIC CELL ANTIGEN 2 ANTIBODIES AND USES THEREOF” (Biogen MA Inc., priority 2012, published 2025).
One block for each substance: values may come before it.

Columns and labels:
[1] = test system: bulk polyclonal human IgG; experiment: Cross-interaction chromatography (CIC); assay type: physicochemical
Source text: Cross-interaction chromatography (CIC) is a high throughput method for preliminary assessment of the stickiness of mAb candidates (Jacobs et al., Pharm Res., 27 (1): 65-71 (2010)). In this method, bulk polyclonal human IgG is chemically coupled to an NHS-activated chromatography resin.

[2] = test system: IFNα production from SLE sera stimulated pDCs; experiment: IFNα production after stimulation with SLE sera; assay type: cell-based, human; conditions: sera from an SLE patient at final dilution 1/5
Protocol: The ability of anti-BDCA2 mAb to inhibit IFNα production following stimulation with a physiologically relevant ligand, namely, sera from patients with SLE was also tested. SLE sera are believed to induce type I IFN through complexes of anti-DNA autoantibodies and immunostimulatory hypomethylated DNA that stimulate TLR9. PBMCs were stimulated with sera from an SLE patient (provided by Dr. Gregg Silverman, NYU) and used at a final dilution of 1/5.

[3] = test system: human and cynomolgus BDCA2 ECD; experiment: Octet binding of BIIB059 to BDCA2 ECD; set-up: species or system cynomolgus monkey; conditions: BIIB059 on anti-human Fc tips, ECD 2 μg/mL, 5 mM CaCl2
Protocol: For the association step, human and cynomolgus BDCA2 ECD was added at a concentration of 2 μg/mL. The buffer for this experiment was 50 mM HEPES, pH 7, 100 mM NaCl, 5 mM CaCl2, 1 mg/mL BSA, 0.02% Tween 20 and 0.001% azide.

[4] = test system: type I IFN transcription in purified pDCs; experiment: Q-PCR of type I IFN genes in CpG-A stimulated purified pDCs; assay type: cell-based, human; conditions: 5 μM CPG-A, 18 hours
Protocol: pDCs were purified using a two-step magnetic bead separation procedure (MACS kit, Miltenyi Biotec). […] Total assay volume was 200 μl/well. Plates were incubated for 18 hours at 37° C., and RNA was extracted from cells using Trizol reagent (Invitrogen corporation) and further purified using an RNeasy mini column (Qiagen Sciences). All primers and probes were purchased from Applied Biosystems Inc. Relative transcript quantities were determined for each sample by comparison to the oligonucleotide standard curve using Sequence Detection Software (Applied Biosystems Inc.) and normalized to a control (GAPDH).

[5] = test system: circulating pDCs; experiment: Circulating pDC frequency after dosing cynomolgus monkeys; assay type: in vivo, cynomolgus monkey
Source text: Nine of these twelve cynomolgus monkeys were divided into 3 groups (3/group), and randomized to include equal representation of BDCA2 density and percent pDC in each group. […] Flow cytometry was used to identify circulating pDCs in the whole blood as CD20-CD14-CD123+HLA-DR+, and the pDC frequency (on log-scale) at each time point was graphed in R software (FIG. 54). A linear mixed effects model was fitted to log (pDC) frequencies using random intercepts for cynomolgus monkeys and fixed effects for dose group and time period: 1 hour, 6 hours, 1-27 days, and greater than 28 days. To assess whether pDC changed among different dose groups at different time periods, a preliminary model also included the interaction terms for dose group and different time periods.
The pDC frequency (on log-scale) at each time point was graphed in R software (FIG. 56). A linear mixed effects model was fitted, using continuous time and time at 1 hour as fixed factors, and cynomolgus monkeys as random intercepts.

[6] = test system: TLR9-induced IFNα production; experiment: Ex vivo whole blood assay (MxA bioassay) after in vivo dosing; set-up: species or system cynomolgus monkey
Protocol: FIG. 58 is a schematic representation of the Cynomolgus Monkey PK/PD Experimental Design. Nine Cynomolgus monkeys completed the intravenous (IV) dose study. […] At each bleeding time point, a whole blood assay was performed where whole blood from the cynomolgus monkeys was diluted 1:4 with complete RPMI 1640 and stimulated with CPG-A to a final concentration of 200 μg/ml in a 96 well round bottom tissue culture plate and incubated at 37° C. 5% CO2 for 18-20 hours. At the end of the culture, the stimulated whole blood was centrifuged to harvest serum. In the MxA bioassay, A549 cells were stimulated with the harvested serum for 19-20 hours at 37° C. 5% CO2 to induce MxA protein. After 20 hours, A549 cells were lysed and a sandwich ELISA was performed to detect concentrations of MxA protein. IFNα levels (units/mL) were back calculated from a standard curve generated by treating A549 cells with increasing doses of rIFNa.
Intravenous and subcutaneous dosing routes were evaluated for their ability to impact IFNα induction, which was measured using the MxA bioassay according to the experimental plan outlined in FIG. 58. TLR9 ligand (CpG-A) induced measurable quantities of IFNα in whole blood cultures across all time points and in all cynomolgus monkeys, while no IFNα was detected in the control PBS-treated cultures (data not shown).
A more comprehensive analysis of the data was performed using two-way mixed effects analysis of variance (ANOVA) to estimate the mean IFNα and the post versus pre differences for each dose group in the IV-study. Data during the first 24 hours following dosing were excluded due to an observed decrease in peripheral blood plasmacytoid dendritic cell percentages. Data for bleeds after day 31 post-dose were excluded from the analysis due to the return of BDCA2 expression observed at this time. For the vehicle dosed group, the geometric mean IFNα was 362 Units/mL (U/mL) pre-dose, and 314 U/mL post-dose; for the 1 mg/kg dosed group, the geometric mean was 399 U/mL pre-dose, and 237 U/mL post-dose; for the 10 mg/kg group, the geometric mean IFNα was 211 U/mL pre-dose, and 102 U/mL post-dose (FIG. 4). The post-pre differences in mean log 10 IFNα were-0.061 (p=0.511) for the Vehicle group, −0.226 (p=0.016) for the 1 mg/kg group, and −0.317 (p=0.004) for the 10 mg/kg group.
For the subcutaneously-dosed cynomolgus monkey cohort, a one-way analysis of variance (ANOVA) with random effects was used to estimate the mean IFNα and the post versus pre differences for the entire group. Data during the first 24 hours following dosing were excluded due to an observed decrease in peripheral blood plasmacytoid dendritic cell percentages. Data for bleeds after day 33 post-dose were excluded from the analysis due to the recovery of BDCA2 expression observed at this time. For the subcutaneously dosed group, the geometric mean IFNα was 1243 U/mL pre-dose and 812 U/mL post-dose, yielding a post/pre ratio of 65%. The post-pre difference in mean log 10 was estimated to be −0.185 (p=0.059) which, after anti-log 10 transformation, corresponds to 10^(−0.185)=65% of the pre-dose geometric mean; the 95% CI of this effect is 41%-102% (FIG. 61).

Substance: 24F4S: hu24F4 H4/L1 with C95S light chain; differs from BIIB059 by 1 amino acid residue
- Solubility ([1]; CIC data table): good
- Rt-Test ([1]; IgG-derivatized column): 9.3
- K′ ([1]; higher K′ values may indicate lower solubility): 0.022
- Rt-Blank ([1]; non-derivatized column): 9.1
- IFNα production [2]: completely abrogated

- binding to human versus cyno BDCA2 ECD [3]: comparable
Substance: BIIB059: humanized IgG1 anti-BDCA2 antibody, mature heavy chain SEQ ID NO: 4 and mature light chain SEQ ID NO: 3
- transcription of type I IFNs [4]: inhibited transcription of all type I IFNs tested
- effect est., log % circulating pDC ([5]; Group: BIIB059 1 mg/kg IV v. vehicle): 0.49
- effect est., log % circulating pDC ([5]; SC 0.2 mg/kg, time (continuous)): 0.01
- effect est., log % circulating pDC ([5]; SC 0.2 mg/kg, time: 1 hr v. others): −0.78
- depletion of pDCs in the blood, in words ([5]; tested doses): does not mediate a sustained depletion of pDCs
- IFNα post-dose, of the pre-dose geometric mean ([6]; 0.2 mg/kg SC): 65%
- post-pre difference in mean log 10 IFNα ([6]; 0.2 mg/kg SC): −0.185
- geometric mean IFNα post-dose ([6]; 0.2 mg/kg SC, up to day 33): 812 U/mL
- IFN concentration post-dose compared to pre-dose ([6]; 1 mg/kg IV): 59%
- post-pre difference in mean log 10 IFNα ([6]; 1 mg/kg IV): −0.226
- geometric mean IFNα post-dose ([6]; 1 mg/kg IV, up to day 31): 237 U/mL
- IFN concentration post-dose compared to pre-dose ([6]; 10 mg/kg IV): 48%
- geometric mean IFNα post-dose ([6]; 10 mg/kg IV): 102 U/mL
- post-pre difference in mean log 10 IFNα ([6]; 10 mg/kg IV): −0.317
- TLR9-induced IFN production ex vivo, in words ([6]; dosed in vivo, IV and SC): trend towards inhibited TLR9-induced IFN production
